From PMC7265341, “Quantifying CDK inhibitor selectivity in live cells” (Nature Communications, 2020)
Like-named read-outs stand apart in the source and are kept apart here.

How the values were obtained:
CDK2/Cyclin E1 = CDK2/Cyclin E1 (Homo sapiens, UniProt P24941); test: NanoBRET live-cell target engagement, CDK2-NanoLuc/Cyclin E1 in HEK-293; format: binding; conditions: CDK2/E1, read-out: Inhibition at 10µM (%)
CDK16/Cyclin Y = CDK16/Cyclin Y (Homo sapiens, UniProt Q00536); test: NanoBRET live-cell target engagement, CDK16-NanoLuc/Cyclin Y in HEK-293; format: binding; conditions: CDK16/Y; for IC50: read-out: IC50; for inhibition at 10 µM: read-out: Inhibition at 10µM (%)
CDK8/Cyclin C = CDK8/Cyclin C (Homo sapiens, UniProt P49336); test: NanoBRET live-cell target engagement, NanoLuc-CDK8/Cyclin C in HEK-293; format: binding; conditions: CDK8/C, read-out: Inhibition at 10µM (%)
CDK9/Cyclin K = CDK9/Cyclin K (Homo sapiens, UniProt P50750); test: NanoBRET live-cell target engagement, NanoLuc-CDK9/Cyclin K in HEK-293; format: binding; conditions: CDK9/K; for inhibition at 10 µM: read-out: Inhibition at 10µM (%)
CDK1/Cyclin E1 = CDK1/Cyclin E1 (Homo sapiens, UniProt P06493); test: NanoBRET live-cell target engagement, CDK1-NanoLuc/Cyclin E1 in HEK-293; format: binding; conditions: CDK1/E1, read-out: Inhibition at 10µM (%)
CDK5/CDK5R1 = CDK5/CDK5R1 (Homo sapiens, UniProt Q00535); test: NanoBRET live-cell target engagement, CDK5-NanoLuc/CDK5R1 in HEK-293; format: binding; conditions: CDK5/CDK5R1, read-out: Inhibition at 10µM (%)
CDK20/Cyclin H = CDK20/Cyclin H (Homo sapiens, UniProt Q8IZL9); test: NanoBRET live-cell target engagement, NanoLuc-CDK20/Cyclin H in HEK-293; format: binding; conditions: CDK20/H, read-out: Inhibition at 10µM (%)
CDK12/Cyclin K = CDK12/Cyclin K (Homo sapiens, UniProt Q9NYV4); test: NanoBRET live-cell target engagement, CDK12-NanoLuc/Cyclin K in HEK-293; format: binding; conditions: read-out: Inhibition at 10µM (%), CDK12/K
CDK3/Cyclin E1 = CDK3/Cyclin E1 (Homo sapiens, UniProt Q00526); test: NanoBRET live-cell target engagement, CDK3-NanoLuc/Cyclin E1 in HEK-293; format: binding; conditions: CDK3/E1, read-out: Inhibition at 10µM (%)
CDK15/Cyclin Y = CDK15/Cyclin Y (Homo sapiens, UniProt Q96Q40); test: NanoBRET live-cell target engagement, NanoLuc-CDK15/Cyclin Y in HEK-293; format: binding; conditions: CDK15/Y; for IC50: read-out: IC50; for inhibition at 10 µM: read-out: Inhibition at 10µM (%)
CDK13/Cyclin K = CDK13/Cyclin K (Homo sapiens, UniProt Q14004); test: NanoBRET live-cell target engagement, CDK13-NanoLuc/Cyclin K in HEK-293; format: binding; conditions: CDK13/K, read-out: Inhibition at 10µM (%)
CDK17/Cyclin Y = CDK17/Cyclin Y (Homo sapiens, UniProt Q00537); test: NanoBRET live-cell target engagement, CDK17-NanoLuc/Cyclin Y in HEK-293; format: binding; conditions: CDK17/Y; for IC50: read-out: IC50; for inhibition at 10 µM: read-out: Inhibition at 10µM (%)
CDK10/Cyclin L2 = CDK10/Cyclin L2 (Homo sapiens, UniProt Q15131); test: NanoBRET live-cell target engagement, CDK10-NanoLuc/Cyclin L2 in HEK-293; conditions: for IC50: IC50 (nM), CDK10/L2; for inhibition at 10 µM: read-out: Inhibition at 10µM (%), CDK10/L2
CDK7 = CDK7 (Homo sapiens, UniProt P50613); test: NanoBRET live-cell target engagement, NanoLuc-CDK7 in HEK-293; format: binding; conditions: CDK7; for IC50: read-out: IC50; for inhibition at 10 µM: read-out: Inhibition at 10µM (%)
CDK4/Cyclin D1 = CDK4/Cyclin D1 (Homo sapiens, UniProt P11802); test: NanoBRET live-cell target engagement, NanoLuc-CDK4/Cyclin D1 in HEK-293; format: binding; conditions: CDK4/D1, read-out: Inhibition at 10µM (%)
CDK11B/Cyclin L2 = CDK11B/Cyclin L2 (Homo sapiens, UniProt P21127); test: NanoBRET live-cell target engagement, CDK11B-NanoLuc/Cyclin L2 in HEK-293; format: binding; conditions: CDK11b/L2; for IC50: read-out: IC50; for inhibition at 10 µM: read-out: Inhibition at 10µM (%)
CDK19/Cyclin C = CDK19/Cyclin C (Homo sapiens, UniProt Q9BWU1); test: NanoBRET live-cell target engagement, NanoLuc-CDK19/Cyclin C in HEK-293; conditions: read-out: Inhibition at 10µM (%), CDK19/C
CDK14/Cyclin Y = CDK14/Cyclin Y (Homo sapiens, UniProt O94921); test: NanoBRET live-cell target engagement, CDK14-NanoLuc/Cyclin Y in HEK-293; format: binding; conditions: CDK14/Y, read-out: Inhibition at 10µM (%)
CDK11A/Cyclin L2 = target: T1, CDK11A/Cyclin L2 (Homo sapiens, UniProt Q9UQ88); test: NanoBRET live-cell target engagement, CDK11A-NanoLuc/Cyclin L2 in HEK-293; format: binding; conditions: CDK11a/L2; for IC50: read-out: IC50; for inhibition at 10 µM: read-out: Inhibition at 10µM (%)
T1 sequence (Q9UQ88 1-783): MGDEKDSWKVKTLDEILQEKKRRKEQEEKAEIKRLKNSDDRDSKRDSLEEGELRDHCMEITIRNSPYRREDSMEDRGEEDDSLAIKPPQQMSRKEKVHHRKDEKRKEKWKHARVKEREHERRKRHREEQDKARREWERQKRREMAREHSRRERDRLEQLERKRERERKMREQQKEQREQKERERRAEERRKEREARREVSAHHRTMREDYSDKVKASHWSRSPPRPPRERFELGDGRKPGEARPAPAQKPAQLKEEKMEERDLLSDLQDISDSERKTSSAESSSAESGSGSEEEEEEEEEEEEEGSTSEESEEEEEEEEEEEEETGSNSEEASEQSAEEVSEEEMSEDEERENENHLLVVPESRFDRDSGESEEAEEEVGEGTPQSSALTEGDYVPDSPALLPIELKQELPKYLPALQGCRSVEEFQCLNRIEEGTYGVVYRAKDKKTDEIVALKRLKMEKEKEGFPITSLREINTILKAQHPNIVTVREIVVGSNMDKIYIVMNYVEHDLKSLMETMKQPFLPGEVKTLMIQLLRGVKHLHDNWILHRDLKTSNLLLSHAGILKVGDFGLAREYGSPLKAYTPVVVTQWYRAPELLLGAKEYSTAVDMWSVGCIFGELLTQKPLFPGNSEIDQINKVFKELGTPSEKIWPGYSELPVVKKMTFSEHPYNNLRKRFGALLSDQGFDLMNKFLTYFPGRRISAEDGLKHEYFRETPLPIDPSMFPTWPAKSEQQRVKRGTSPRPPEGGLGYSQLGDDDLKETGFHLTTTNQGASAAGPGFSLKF

Sequence of CDK7 (P50613 whole entry): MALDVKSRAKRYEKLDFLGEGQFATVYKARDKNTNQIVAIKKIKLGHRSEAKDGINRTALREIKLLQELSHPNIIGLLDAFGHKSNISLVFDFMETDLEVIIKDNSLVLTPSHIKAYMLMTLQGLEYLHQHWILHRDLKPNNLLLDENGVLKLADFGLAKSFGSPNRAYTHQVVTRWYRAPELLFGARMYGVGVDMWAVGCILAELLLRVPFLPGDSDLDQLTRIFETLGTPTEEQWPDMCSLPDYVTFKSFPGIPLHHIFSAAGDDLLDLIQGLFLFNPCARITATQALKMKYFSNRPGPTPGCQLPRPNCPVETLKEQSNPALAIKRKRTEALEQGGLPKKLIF
Sequence of CDK15/Cyclin Y (Q96Q40 whole entry): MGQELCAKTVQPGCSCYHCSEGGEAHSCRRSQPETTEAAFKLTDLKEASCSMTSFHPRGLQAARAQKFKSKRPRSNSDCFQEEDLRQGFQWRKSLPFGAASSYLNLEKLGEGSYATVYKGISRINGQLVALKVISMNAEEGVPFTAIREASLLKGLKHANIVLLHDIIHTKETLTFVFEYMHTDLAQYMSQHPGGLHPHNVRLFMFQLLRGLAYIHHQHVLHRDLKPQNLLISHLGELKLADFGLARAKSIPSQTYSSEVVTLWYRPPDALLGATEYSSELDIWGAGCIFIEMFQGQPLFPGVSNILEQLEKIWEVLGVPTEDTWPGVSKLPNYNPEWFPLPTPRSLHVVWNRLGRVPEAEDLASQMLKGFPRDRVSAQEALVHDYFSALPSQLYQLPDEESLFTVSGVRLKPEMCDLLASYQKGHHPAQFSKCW
Sequence of CDK15/Cyclin Y (Q8ND76 whole entry partner): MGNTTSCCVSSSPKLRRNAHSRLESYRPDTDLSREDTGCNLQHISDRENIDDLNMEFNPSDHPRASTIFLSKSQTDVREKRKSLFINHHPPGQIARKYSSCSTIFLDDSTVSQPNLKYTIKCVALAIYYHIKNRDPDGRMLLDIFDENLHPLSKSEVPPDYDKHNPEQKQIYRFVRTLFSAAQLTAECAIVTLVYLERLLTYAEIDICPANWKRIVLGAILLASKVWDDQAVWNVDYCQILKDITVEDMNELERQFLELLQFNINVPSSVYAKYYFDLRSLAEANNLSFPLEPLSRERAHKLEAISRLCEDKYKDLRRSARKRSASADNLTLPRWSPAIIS
Sequence of CDK1/Cyclin E1 (P06493 whole entry): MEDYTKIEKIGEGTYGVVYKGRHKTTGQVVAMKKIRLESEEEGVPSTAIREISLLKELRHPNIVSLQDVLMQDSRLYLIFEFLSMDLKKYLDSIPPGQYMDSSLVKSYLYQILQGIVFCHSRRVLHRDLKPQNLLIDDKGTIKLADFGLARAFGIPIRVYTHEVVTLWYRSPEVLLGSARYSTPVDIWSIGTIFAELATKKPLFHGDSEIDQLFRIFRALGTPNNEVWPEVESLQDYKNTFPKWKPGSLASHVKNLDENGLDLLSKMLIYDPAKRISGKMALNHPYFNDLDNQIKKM
Sequence of CDK1/Cyclin E1 (P24864 whole entry partner): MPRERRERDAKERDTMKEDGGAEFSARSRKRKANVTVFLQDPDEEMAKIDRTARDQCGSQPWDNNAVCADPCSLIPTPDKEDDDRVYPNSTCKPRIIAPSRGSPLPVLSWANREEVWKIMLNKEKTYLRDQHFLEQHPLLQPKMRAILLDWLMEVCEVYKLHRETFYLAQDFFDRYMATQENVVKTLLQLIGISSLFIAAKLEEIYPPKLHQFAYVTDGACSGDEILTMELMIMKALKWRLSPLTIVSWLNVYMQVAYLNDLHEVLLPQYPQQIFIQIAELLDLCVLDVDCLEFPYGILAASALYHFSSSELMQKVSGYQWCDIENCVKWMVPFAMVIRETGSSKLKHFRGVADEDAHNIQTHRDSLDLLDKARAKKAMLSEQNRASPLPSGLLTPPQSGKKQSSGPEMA
Sequence of CDK12/Cyclin K (Q9NYV4 1-1481 isoform Q9NYV4-2): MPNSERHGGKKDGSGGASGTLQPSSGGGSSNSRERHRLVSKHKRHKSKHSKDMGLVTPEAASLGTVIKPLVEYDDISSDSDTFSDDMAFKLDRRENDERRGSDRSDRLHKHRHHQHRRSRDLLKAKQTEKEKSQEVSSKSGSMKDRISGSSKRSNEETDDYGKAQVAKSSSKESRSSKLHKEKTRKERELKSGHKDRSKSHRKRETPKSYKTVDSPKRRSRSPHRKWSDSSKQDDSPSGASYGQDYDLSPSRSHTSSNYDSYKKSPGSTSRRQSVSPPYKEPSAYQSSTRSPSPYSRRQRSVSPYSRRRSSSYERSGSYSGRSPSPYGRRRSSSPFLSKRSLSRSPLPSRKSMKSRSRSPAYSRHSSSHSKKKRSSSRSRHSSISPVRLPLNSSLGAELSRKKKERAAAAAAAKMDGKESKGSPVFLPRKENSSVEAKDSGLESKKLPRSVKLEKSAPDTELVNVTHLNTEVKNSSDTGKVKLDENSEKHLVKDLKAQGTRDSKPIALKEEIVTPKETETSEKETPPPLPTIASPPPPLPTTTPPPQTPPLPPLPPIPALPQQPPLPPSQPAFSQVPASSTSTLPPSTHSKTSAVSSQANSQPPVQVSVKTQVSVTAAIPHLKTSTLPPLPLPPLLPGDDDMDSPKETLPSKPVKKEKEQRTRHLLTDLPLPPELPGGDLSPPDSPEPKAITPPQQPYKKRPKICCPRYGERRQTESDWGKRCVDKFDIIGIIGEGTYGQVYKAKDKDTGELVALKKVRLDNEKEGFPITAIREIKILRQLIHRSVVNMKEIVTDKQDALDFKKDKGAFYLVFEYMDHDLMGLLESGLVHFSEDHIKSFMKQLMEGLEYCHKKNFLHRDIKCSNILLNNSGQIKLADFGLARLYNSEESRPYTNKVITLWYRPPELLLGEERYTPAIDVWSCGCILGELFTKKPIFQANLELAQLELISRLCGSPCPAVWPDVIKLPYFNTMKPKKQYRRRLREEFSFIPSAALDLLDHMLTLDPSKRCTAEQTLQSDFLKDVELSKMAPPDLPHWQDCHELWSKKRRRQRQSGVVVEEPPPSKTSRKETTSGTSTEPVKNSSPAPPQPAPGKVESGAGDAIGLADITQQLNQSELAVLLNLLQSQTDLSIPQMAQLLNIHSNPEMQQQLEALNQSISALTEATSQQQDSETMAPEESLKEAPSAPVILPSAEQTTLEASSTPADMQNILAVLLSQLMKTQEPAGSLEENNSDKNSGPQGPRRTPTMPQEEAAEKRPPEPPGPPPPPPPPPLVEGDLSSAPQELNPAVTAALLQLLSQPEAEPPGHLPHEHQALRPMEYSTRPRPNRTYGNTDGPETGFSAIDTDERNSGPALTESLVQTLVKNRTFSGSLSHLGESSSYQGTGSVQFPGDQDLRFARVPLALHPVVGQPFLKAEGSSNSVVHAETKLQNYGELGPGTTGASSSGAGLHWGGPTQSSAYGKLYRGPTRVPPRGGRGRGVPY
Sequence of CDK12/Cyclin K (O75909 whole entry partner): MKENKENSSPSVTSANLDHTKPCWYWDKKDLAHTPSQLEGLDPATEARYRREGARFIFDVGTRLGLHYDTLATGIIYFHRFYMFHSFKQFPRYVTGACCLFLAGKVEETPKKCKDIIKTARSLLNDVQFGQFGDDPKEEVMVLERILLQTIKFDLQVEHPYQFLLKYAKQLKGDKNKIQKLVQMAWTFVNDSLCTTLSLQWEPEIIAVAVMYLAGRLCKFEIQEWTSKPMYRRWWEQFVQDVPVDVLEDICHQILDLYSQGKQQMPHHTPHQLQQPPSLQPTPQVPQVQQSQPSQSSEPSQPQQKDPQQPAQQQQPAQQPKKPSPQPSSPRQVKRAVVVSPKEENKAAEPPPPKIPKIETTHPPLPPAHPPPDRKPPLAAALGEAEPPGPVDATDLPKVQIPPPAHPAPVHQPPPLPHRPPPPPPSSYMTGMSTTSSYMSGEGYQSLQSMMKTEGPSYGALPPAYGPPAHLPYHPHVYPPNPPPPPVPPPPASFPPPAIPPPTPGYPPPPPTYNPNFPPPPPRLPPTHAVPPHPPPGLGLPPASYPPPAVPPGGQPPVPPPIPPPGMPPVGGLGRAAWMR
Sequence of CDK9/Cyclin K (P50750 whole entry): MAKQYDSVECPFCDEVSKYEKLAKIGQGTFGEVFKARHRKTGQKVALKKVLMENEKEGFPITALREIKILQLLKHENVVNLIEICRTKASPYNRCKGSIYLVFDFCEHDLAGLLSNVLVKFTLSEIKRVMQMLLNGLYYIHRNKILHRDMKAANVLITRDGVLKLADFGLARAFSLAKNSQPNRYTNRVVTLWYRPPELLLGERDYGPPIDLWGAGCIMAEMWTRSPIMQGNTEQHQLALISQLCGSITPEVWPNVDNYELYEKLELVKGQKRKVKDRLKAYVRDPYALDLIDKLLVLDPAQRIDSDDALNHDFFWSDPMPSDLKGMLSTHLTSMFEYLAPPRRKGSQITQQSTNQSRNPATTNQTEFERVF
Sequence of CDK9/Cyclin K (O75909 whole entry partner): as the sequence (O75909 whole entry partner) above
Sequence of CDK3/Cyclin E1 (Q00526 whole entry): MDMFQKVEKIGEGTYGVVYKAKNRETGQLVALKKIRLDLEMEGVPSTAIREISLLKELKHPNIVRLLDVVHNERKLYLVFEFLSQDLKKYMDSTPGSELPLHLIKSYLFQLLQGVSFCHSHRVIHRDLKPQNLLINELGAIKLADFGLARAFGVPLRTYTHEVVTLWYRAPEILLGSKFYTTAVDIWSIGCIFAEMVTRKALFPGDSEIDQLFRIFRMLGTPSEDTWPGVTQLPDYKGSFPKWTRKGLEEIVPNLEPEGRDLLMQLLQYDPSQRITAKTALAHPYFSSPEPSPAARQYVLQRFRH
Sequence of CDK3/Cyclin E1 (P24864 whole entry partner): as the sequence (P24864 whole entry partner) above

COc1ccc(F)cc1-c1cc(NC(=O)C2CCCNC2)ncc1Cl (stereo not drawn) [CDK inhibitor 2]
inhibition at 10 µM (CDK2/Cyclin E1; average): 65.6%
inhibition at 10 µM (CDK2/Cyclin E1; experiment 1): 61.9%
inhibition at 10 µM (CDK2/Cyclin E1; experiment 2): 69.3%
IC50 (CDK16/Cyclin Y; average (± SEM where n=3)): 100 ± 30 nM
IC50 (CDK16/Cyclin Y; experiment 1): 51 nM
inhibition at 10 µM (CDK16/Cyclin Y; experiment 1): 89.7%
IC50 (CDK16/Cyclin Y; experiment 2): 140 nM
inhibition at 10 µM (CDK16/Cyclin Y; experiment 2): 90.1%
IC50 (CDK16/Cyclin Y; experiment 3): 117 nM
inhibition at 10 µM (CDK8/Cyclin C; average): 58%
inhibition at 10 µM (CDK8/Cyclin C; experiment 1): 65.9%
inhibition at 10 µM (CDK8/Cyclin C; experiment 2): 50%
IC50 (CDK9/Cyclin K; average (± SEM where n=3)): 3.5 ± 0.8 nM
inhibition at 10 µM (CDK9/Cyclin K; average): 98.4%
IC50 (CDK9/Cyclin K; experiment 1): 5 nM
inhibition at 10 µM (CDK9/Cyclin K; experiment 1): 99.1%
IC50 (CDK9/Cyclin K; experiment 2): 2.3 nM
inhibition at 10 µM (CDK9/Cyclin K; experiment 2): 97.8%
IC50 (CDK9/Cyclin K; experiment 3): 3 nM
inhibition at 10 µM (CDK1/Cyclin E1; average): 79.7%
inhibition at 10 µM (CDK1/Cyclin E1; experiment 1): 76.7%
inhibition at 10 µM (CDK1/Cyclin E1; experiment 2): 82.8%
inhibition at 10 µM (CDK5/CDK5R1; average): 40%
inhibition at 10 µM (CDK5/CDK5R1; experiment 1): 37.7%
inhibition at 10 µM (CDK5/CDK5R1; experiment 2): 42.4%
inhibition at 10 µM (CDK20/Cyclin H; experiment 1): 18.7%
inhibition at 10 µM (CDK20/Cyclin H; experiment 2): 27.3%
inhibition at 10 µM (CDK12/Cyclin K; average): 49.3%
inhibition at 10 µM (CDK12/Cyclin K; experiment 1): 41%
inhibition at 10 µM (CDK12/Cyclin K; experiment 2): 57.6%
inhibition at 10 µM (CDK3/Cyclin E1; average): 92.7%
inhibition at 10 µM (CDK3/Cyclin E1; experiment 1): 92.3%
inhibition at 10 µM (CDK3/Cyclin E1; experiment 2): 93%
IC50 (CDK15/Cyclin Y; average (± SEM where n=3)): 540 ± 70 nM
inhibition at 10 µM (CDK15/Cyclin Y; average): 92.4%
IC50 (CDK15/Cyclin Y; experiment 1): 407 nM
inhibition at 10 µM (CDK15/Cyclin Y; experiment 1): 93.4%
IC50 (CDK15/Cyclin Y; experiment 2): 570 nM
inhibition at 10 µM (CDK15/Cyclin Y; experiment 2): 91.4%
IC50 (CDK15/Cyclin Y; experiment 3): 648 nM
inhibition at 10 µM (CDK13/Cyclin K; average): 41.2%
inhibition at 10 µM (CDK13/Cyclin K; experiment 1): 31.4%
inhibition at 10 µM (CDK13/Cyclin K; experiment 2): 51.1%
IC50 (CDK17/Cyclin Y; average (± SEM where n=3)): 90 ± 20 nM
inhibition at 10 µM (CDK17/Cyclin Y; average): 91.6%
IC50 (CDK17/Cyclin Y; experiment 1): 57 nM
inhibition at 10 µM (CDK17/Cyclin Y; experiment 1): 90.5%
IC50 (CDK17/Cyclin Y; experiment 2): 110 nM
inhibition at 10 µM (CDK17/Cyclin Y; experiment 2): 92.6%
IC50 (CDK17/Cyclin Y; experiment 3): 99 nM
IC50 (CDK10/Cyclin L2; average (± SEM where n=3)): 500 ± 200 nM
IC50 (CDK10/Cyclin L2; experiment 1): 340 nM
IC50 (CDK10/Cyclin L2; experiment 2): 230 nM
IC50 (CDK10/Cyclin L2; experiment 3): 972 nM
inhibition at 10 µM (CDK10/Cyclin L2; average): 83.1%
inhibition at 10 µM (CDK10/Cyclin L2; experiment 1): 83.7%
inhibition at 10 µM (CDK10/Cyclin L2; experiment 2): 82.5%
IC50 (CDK7; average (± SEM where n=3)): 120 ± 50 nM
inhibition at 10 µM (CDK7; average): 82.8%
IC50 (CDK7; experiment 1): 83 nM
inhibition at 10 µM (CDK7; experiment 1): 83.3%
IC50 (CDK7; experiment 2): 58 nM
inhibition at 10 µM (CDK7; experiment 2): 82.3%
IC50 (CDK7; experiment 3): 215 nM
inhibition at 10 µM (CDK4/Cyclin D1; average): 83.4%
inhibition at 10 µM (CDK4/Cyclin D1; experiment 1): 81.2%
inhibition at 10 µM (CDK4/Cyclin D1; experiment 2): 85.7%
IC50 (CDK11B/Cyclin L2; average (± SEM where n=3)): 17 ± 5 nM
inhibition at 10 µM (CDK11B/Cyclin L2; average): 95.6%
IC50 (CDK11B/Cyclin L2; experiment 1): 9 nM
inhibition at 10 µM (CDK11B/Cyclin L2; experiment 1): 96.5%
IC50 (CDK11B/Cyclin L2; experiment 2): 18 nM
inhibition at 10 µM (CDK11B/Cyclin L2; experiment 2): 94.6%
IC50 (CDK11B/Cyclin L2; experiment 3): 25 nM
inhibition at 10 µM (CDK19/Cyclin C; average): 72.6%
inhibition at 10 µM (CDK19/Cyclin C; experiment 1): 75.1%
inhibition at 10 µM (CDK19/Cyclin C; experiment 2): 70.1%
inhibition at 10 µM (CDK14/Cyclin Y; average): 86.5%
inhibition at 10 µM (CDK14/Cyclin Y; experiment 1): 89.6%
inhibition at 10 µM (CDK14/Cyclin Y; experiment 2): 83.5%
IC50 (CDK11A/Cyclin L2; average (± SEM where n=3)): 20 ± 10 nM
inhibition at 10 µM (CDK11A/Cyclin L2; average): 95.4%
IC50 (CDK11A/Cyclin L2; experiment 1): 8.3 nM
inhibition at 10 µM (CDK11A/Cyclin L2; experiment 1): 94.8%
IC50 (CDK11A/Cyclin L2; experiment 2): 17 nM
inhibition at 10 µM (CDK11A/Cyclin L2; experiment 2): 95.9%
IC50 (CDK11A/Cyclin L2; experiment 3): 47 nM
